Paper PMC4741889, “Ligand-based chemoinformatic discovery of a novel small molecule inhibitor targeting CDC25 dual specificity phosphatases and displaying in vitro efficacy against melanoma cells” (Oncotarget, 2015)

Key:
caspase-3 activity = experiment: Caspase-3 enzymatic activity in SAN cells; type: cell-based, human; settings: 100 μM
Text: PI incorporation followed by flow cytometric analysis was used to detect the effect of 7 on the number of nuclei with a sub-diploid content, a typical hallmark of apoptosis. A time-dependent increase of apoptosis was evident in both A2058 and SAN cells and in particular, the effect of 7 on cell death program was already evident after 24-h treatment (Figure 7). […] To further investigate on the capacity of 7 to induce apoptosis, the enzymatic activity of caspase-3, the final effector of apoptotic program, was monitored.
To estimate caspase-3 and caspase-9 activity during the treatment with compound 7, the respective enzymatic activities were measured by using caspase-3 and -9 fluorimetric assay kits, according to the manufacturer's protocol, essentially as previously described. Briefly, cells were seeded into 75 cm^2 plates (2 × 10^6 cells/plate) for 24 h at 37°C and then treated with 100 μM 7 or 0.5% DMSO. At the end of each incubation, cells were collected, washed with PBS, and finally lysed at 4°C in the cell lysis buffer. Cell lysates were incubated with 50 μM DEVD-AFC or LEHD-AFC substrates at 37°C for 2 h, to detect caspase-3 or caspase-9 activity, respectively, using a Cary Eclipse fluorescence spectrophotometer (Varian). Excitation and emission wavelengths were set at 400 nm and 505 nm, respectively; both excitation and emission slits were set at 10 nm.

SAN cells = experiment: Intracellular ROS level (DCFH-DA), SAN cells; type: cell-based, human; settings: SAN, then 100 μM 7 for 4 h
Method: The high redox reactivity of quinonoid molecules, like compound 7, could greatly perturb the intracellular redox state. […] The oxidant effect of 7 was also evaluated after cell pre-treatment with two antioxidant molecules, such as N-acetyl-cysteine (NAC) and the specific inhibitor of NADPH oxidase, apocynin. To this aim, A2058 and SAN cells were pre-incubated for 1 h with 10 mM NAC or 45 min with 0.5 mM apocynin and then treated for 4 h with 100 μM compound 7. […] The cytotoxic activity of 7 could be mediated by the observed increase of ROS level.
The intracellular ROS level was monitored using the oxidation-sensitive fluorescence probe DCFH-DA. Cells were seeded into 6-well-plates (3 × 10^5 cells/plate) for 24 h at 37°C and then treated at various times with 100 μM compound 7 or 0.5% DMSO. DCFH-DA was added in the dark at 10 μM final concentration 30-min before the end of each incubation; then, cells were collected, washed in PBS, and finally resuspended in 500 μL PBS for fluorimetric analysis. Measurements were realized in a Cary Eclipse fluorescence spectrophotometer (Varian); excitation and emission wavelengths were set at 485 nm and 530 nm, respectively; both excitation and emission slits were set at 10 nm. The effect of 7 on ROS production was also estimated after pretreatment of cells with 10 mM NAC for 1 h.
Supplementary Figure S5: ROS production and their involvement in the apoptotic process of SAN cells, as induced by treatment with compound 7. A. Time-dependent measurement of ROS production. Cells were incubated with 0.5% DMSO (open bars) or 100 μM compound 7 (black bars) and then the intracellular ROS level was measured. B. Effect of antioxidant molecules on ROS production. The ROS level was also measured in cells untreated or pretreated with NAC or apocynin after a 4-h incubation with DMSO or 7. C. Effect of NAC on apoptosis. The PI incorporation was evaluated in cells untreated or pretreated with NAC after a 48-h incubation with DMSO or 7. ROS production was expressed as a.u., and apoptosis as a percentage. […]

CDC25B protein levels = experiment: Western blotting of CDC25B protein levels in A2058 cells; type: cell-based, human; settings: A2058, 100 μM, up to 16 h
Method: To better investigate the effect of this inhibitor at the molecular level, we evaluated if the treatment of A2058 cells with 7 affected also the protein levels of the three CDC25 forms. […] On the other hand, the protein levels of CDC25B were unaffected by treatment of A2058 cells with 7 up to 16 h.
A2058 cells were seeded into 6-well-plates (3 × 10^5 cells/plate) for 24 h at 37°C and then treated at different times with 100 μM compound 7 or 0.5% DMSO. After treatment, cells were harvested, washed with PBS and then lysed in ice-cold modified radio immunoprecipitation assay (RIPA) buffer (50 mM Tris-HCl, pH 7.4, 150 mM NaCl, 1% Nonidet P-40, 0.25% sodium deoxycholate, 1 mM Na3VO4 and 1 mM NaF), supplemented with protease inhibitors and incubated for 30 min on ice. The supernatant obtained after centrifugation at 12,000 rpm for 30 min at 4°C constituted the total protein extract. The protein concentration was determined by the method of Bradford, using bovine serum albumin (BSA) as standard. Equal amounts of total protein extracts were used for Western blot analysis. […] Membranes were then analysed by an enhanced chemiluminescence reaction, using Super Signal West Pico kit (Pierce) according to manufacturer's instruction; signals were visualized by autoradiography.

CDC25A = biological target: T1, CDC25A (Homo sapiens, UniProt P30304); experiment: Ki from OMFP hydrolysis kinetics (Lineweaver-Burk), CDC25A; type: biochemical; settings: 20 nM CDC25A, 1–25 μM OMFP; mean ± S.E.; read-out: Ki CDC25A
T1 construct: Recombinant forms of the catalytic domains of CDC25A, -B and -C were obtained through the vectors pET28a-CDC25A-cd, pET28a-CDC25B-cd and pET28a-CDC25C-cd; made in house
T1 sequence (P30304 376-482 limits assumed): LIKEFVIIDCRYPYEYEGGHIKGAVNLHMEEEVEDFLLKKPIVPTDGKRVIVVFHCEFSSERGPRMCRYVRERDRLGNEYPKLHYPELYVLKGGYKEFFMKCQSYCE
Method: To measure the inhibition constant (Ki) of the recombinant forms of CDC25A, -B and -C towards the various inhibitors, the affinity of the different forms of CDC25 towards OMFP was measured either in the absence or in the presence of fixed concentrations of the various inhibitors. The reaction mixture contained 20 nM CDC25A, or 10 nM CDC25B, or 40 nM CDC25C, and different concentrations of the various inhibitors in 500 μL final volume of 20 mM Tris-HCl, pH 7.8, 1 mM DTT. DMSO was used as vehicle control. […] The corresponding Lineweaver-Burk plots allowed the calculation of the KM for OMFP and of the Vmax of OMFP hydrolysis, expressed as a.u./minmax. […] The Ki values were obtained from the decrease of a.u./minmax in the presence of the inhibitor, according to the equation a.u./mimmax’ = a.u./mimmax/{1 + ([I]/Ki)}, where a.u./mimmax’ represents the Vmax measured in the presence of the concentration [I] of the inhibitor. The Ki values were obtained from at least three independent experiments and reported as mean ± S.E.

O=C(O)C1CCCCC1c1c2ccc(=O)cc-2oc2cc(O)ccc12 (centres unmarked) [Compound 7, 2-(6-hydroxy-3-oxo-3H-xanthen-9-yl)cyclohexanecarboxylic acid]
caspase-3 enzymatic activity (caspase-3 activity): significant increase of the enzymatic activity of caspase-3
increase of ROS level after apocynin pre-treatment (SAN cells; 0.5 mM apocynin 45 min): did not prevent the increase of ROS level
increase of ROS level after NAC pre-treatment (SAN cells; 10 mM NAC 1 h): prevented by the NAC treatment
CDC25B protein levels (CDC25B protein levels): unaffected
Ki (CDC25A): 0.65 ± 0.04 µM
